≈ marks a conversion by molar mass, not a printed value. Where “and” joins values, the source holds several entries; their conditions need not be identical. Identical values can stand only once. Where only a bound is given, the exact number is not on record here.

One data set concerns HIV-1 (RF) in MT-2 cells. The data set can be described thus: microbe, parasite or virus in culture. It is filed as cell-based. The following applies: Human immunodeficiency virus 1, MT2, HIV RNA assay, HIV-1 infected MT-2 cells; class symbols; read-out: IC90. A digest of the protocol: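 HIV-1 laboratory strains (RF, MN, IIIB) grown in H9 cells in RPMI 1640 with 5% FCS; infections in MT-2 cells. Viral RNA quantified by hybridization with biotinylated gag/pol capture probes on streptavidin plates and alkaline phosphatase-conjugated reporter probes; BH10 gag-pol in vitro transcripts serve as RNA standards.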
Broadly, the IC90 is the point of the concentration-response curve where the effect stands at 90%. For the compound `C=CCN1C(=O)N(Cc2ccccn2)C(Cc2ccccc2)C(O)C(O)C1Cc1ccccc1` (centres unmarked) [Example 5C], the 90% effect concentration (IC90) was less than 10 µg/mL.

Take `O=C1N(Cc2cccnc2)C(Cc2ccccc2)C(O)C(O)C(Cc2ccccc2)N1Cc1ccc2ccccc2c1` (centres unmarked) [Example 5H]: the IC90 is less than 10 µg/mL.

As to `C=CCOc1cccc(CN2C(=O)N(Cc3cccc(OCC=C)c3)C(Cc3ccccc3)C(O)C(O)C2Cc2ccccc2)c1` (centres unmarked) [Example 5L], the IC90 is more than 100 µg/mL.

As for `C=CCOc1cccc(CN2C(=O)N(Cc3cccc(O)c3)C(Cc3ccccc3)C(O)C(O)C2Cc2ccccc2)c1` (centres unmarked) [Example 5M], the IC90 was less than 10 µg/mL.

As to `CCOc1cccc(CN2C(=O)N(Cc3cccc(OCC)c3)C(Cc3ccccc3)C(O)C(O)C2Cc2ccccc2)c1` (centres unmarked) [Example 5N], the concentration for an effect of 90% (IC90) is more than 100 µg/mL.

With `O=C1N(Cc2ccccc2Cl)C(Cc2ccccc2)C(O)C(O)C(Cc2ccccc2)N1Cc1ccccc1Cl` (centres unmarked) [Example 6ZD], the IC90 was less than 10 µg/mL.

Turning to `O=C1N(Cc2ccc(Br)cc2)C(Cc2ccccc2)C(O)C(O)C(Cc2ccccc2)N1Cc1ccc(Br)cc1` (centres unmarked) [Example 6ZG], the IC90 was less than 10 µg/mL.

Consider `Nc1cccc(CN2C(=O)N(Cc3cccc(N)c3)C(Cc3ccccc3)C(O)C(O)C2Cc2ccccc2)c1` (centres unmarked) [Example 6ZI], for which the IC90 is less than 10 µg/mL.

As to `NCc1cccc(CN2C(=O)N(Cc3cccc(CN)c3)C(Cc3ccccc3)C(O)C(O)C2Cc2ccccc2)c1` (centres unmarked) [Example 6ZK], the IC90 was 10 to 100 µg/mL (≈ 17.7 to 177 µM).

Consider `O=C1NC(Cc2ccccc2)C(O)C(O)C(Cc2ccccc2)N1Cc1cccc([N+](=O)[O-])c1` (centres unmarked) [Example 6ZL], for which the IC90 is less than 10 µg/mL.

Regarding `O=CNc1cccc(CN2C(=O)N(Cc3cccc(NC=O)c3)C(Cc3ccccc3)C(O)C(O)C2Cc2ccccc2)c1` (centres unmarked) [Example 6ZM], the IC90 is less than 10 µg/mL.

As for `CC(=O)Nc1cccc(CN2C(=O)N(Cc3cccc(NC(C)=O)c3)C(Cc3ccccc3)C(O)C(O)C2Cc2ccccc2)c1` (centres unmarked) [Example 6ZN], the IC90 was less than 10 µg/mL.

Take `O=C1N(Cc2ccc(O)c(O)c2)C(Cc2ccccc2)C(O)C(O)C(Cc2ccccc2)N1Cc1ccc(O)c(O)c1` (centres unmarked) [Example 6ZQ]: the concentration for an effect of 90% (IC90) is less than 10 µg/mL.

With `O=C1NC(Cc2ccccc2)C(O)C(O)C(Cc2ccccc2)N1Cc1ccccc1` (centres unmarked) [Example 6o], the IC90 was less than 10 µg/mL.

Test system in the next data set: not given
Test: not given
Details: not given
One may read the melting point as the temperature of the solid-liquid transition. For `O=C1N(Cc2ccc(-c3ccccc3)cc2)C(Cc2ccccc2)C(O)C(O)C(Cc2ccccc2)N1Cc1ccc(-c2ccccc2)cc1` (centres unmarked) [Example 4R], the melting point was in the range of 109 to 110 °C.

`C=CCN1C(=O)NC(Cc2ccccc2)C(O)C(O)C1Cc1ccccc1` (centres unmarked) [Example 5A] came in with a melting point of 180 to 182 °C.

As to `C=CCN1C(=O)N(Cc2ccccn2)C(Cc2ccccc2)C(O)C(O)C1Cc1ccccc1` (centres unmarked) [Example 5C], the melting point lay within 160 to 162 °C.

The compound `O=C1N(Cc2cccc(OCc3ccccc3)c2)C(Cc2ccccc2)C(O)C(O)C(Cc2ccccc2)N1Cc1cccc(OCc2ccccc2)c1` (centres unmarked) [Example 5F] yielded a melting point of 165 to 166 °C.

`O=C1N(Cc2cccnc2)C(Cc2ccccc2)C(O)C(O)C(Cc2ccccc2)N1Cc1ccc2ccccc2c1` (centres unmarked) [Example 5H] came in with a melting point of 94 to 96 °C.

In turn, `C=CCOc1cccc(CN2C(=O)N(Cc3cccc(OCC=C)c3)C(Cc3ccccc3)C(O)C(O)C2Cc2ccccc2)c1` (centres unmarked) [Example 5L] had a melting point of 170 to 172 °C.

`C=CCOc1cccc(CN2C(=O)N(Cc3cccc(O)c3)C(Cc3ccccc3)C(O)C(O)C2Cc2ccccc2)c1` (centres unmarked) [Example 5M] yielded a melting point of 78 to 79 °C.

As for `CCOc1cccc(CN2C(=O)N(Cc3cccc(OCC)c3)C(Cc3ccccc3)C(O)C(O)C2Cc2ccccc2)c1` (centres unmarked) [Example 5N], the melting point was 185 to 186 °C.

Regarding `O=C1c2ccccc2C(O)C(O)c2ccccc21` (centres unmarked) [Example 26A, 5H-dibenzo [A,D] cyclohepten-5-one-10,11-dihydro-10, 11-diol], the melting point is 107.5 to 108 °C and 107.5 to 107.9 °C.

The target of another data set is single-chain tethered dimer of HIV protease (Human immunodeficiency virus 1, UniProt P04585). The data set is described as follows: biochemical. It is filed as biochemical.
Details: not given
Here is the method:
HIV Protease Inhibition Assay—HPLC Method
Active protease was prepared as described therein by extraction with 67% acetic acid, dilution 33-fold with water, dialysis against water and then against a “refolding buffer” consisting of 20 mM MES, 1 mM dithiothreitol and 10% glycerol. Protease was stored as a stock preparation at 10 uM in refolding buffer.
Substrate: Peptide of sequence: aminobenzoyl-Ala-Thr-His-Gln-Val-Tyr-Phe(NO2)-Val-Arg-Lys-Ala containing p-nitrophenylalanine, was prepared by solid phase synthesis as previously described Cheng et al., op.cit. Stock solutions of 2 mM substrate were prepared in DMSO.
Inhibitory compounds were dissolved in sufficient DMSO to make 3 mM stock solutions. All further dilutions were prepared in “assay buffer”: 1M NaCl, 50 mM MES, pH 5.5, 1 mM EDTA, 1 mM DTT, […] glycerol.
Enzyme reaction: In a 2 ml screw-cap centrifuge tube were added 50 ul protease (final concentration 0.25 nM) and 0.1 ml inhibitory compound (final concentration […]). After 15 min preincubation at room temperature, the reaction was started with the addition of 0.05 ml substrate (final concentration 5 uM). Incubation was carried out at 30 C. for 1 hr. The reaction was stopped with 1 ml 0.1M ammonium hydroxide.
HPLC measurement of product formation: The product (aminobenzoyl-Ala-Thr-His-Gln-Val-Tyr) was separated from substrate on a Pharmacia MonoQ anion exchange column. The injection volume was 0.2 ml. The mobile phases were: A (20 mM trisHCl, pH 9.0, 0.02% sodium Azide, 10% acetonitrile), B (20 mM tris HCl, pH 9.0, 0.02% sodium azide, 0.5M ammonium formate, 10% acetonitrile). The mobile phases were pumped at 1 ml/min, with a gradient from 0 to 30% B in 5 min, 100% B for 4 min to wash the column, and a re-equilibration for 4 min. The retention time of the product was 3.6 min. Detection with a Shimadzu model RF535 fluorescence monitor was at 330 nm (excitation) and 430 (emission).
As usually defined, the Ki is the dissociation constant of the complex between target and ligand, obtained from inhibition or displacement. High values mean a looser hold on the target, low ones a stronger hold on the target. Take `O=C1N(Cc2ccc(-c3ccccc3)cc2)C(Cc2ccccc2)C(O)C(O)C(Cc2ccccc2)N1Cc1ccc(-c2ccccc2)cc1` (centres unmarked) [Example 4R]: the Ki was in the range of 10 to 1000 nM.

Take `C=CCN1C(=O)NC(Cc2ccccc2)C(O)C(O)C1Cc1ccccc1` (centres unmarked) [Example 5A]: the Ki was more than 1000 nM.

Compound `C=CCN1C(=O)N(Cc2ccccn2)C(Cc2ccccc2)C(O)C(O)C1Cc1ccccc1` (centres unmarked) [Example 5C] gave a Ki of 10 to 1000 nM.

`O=C1N(Cc2cccc(OCc3ccccc3)c2)C(Cc2ccccc2)C(O)C(O)C(Cc2ccccc2)N1Cc1cccc(OCc2ccccc2)c1` (centres unmarked) [Example 5F] gave a Ki of 10 to 1000 nM.

Compound `O=C1N(Cc2cccnc2)C(Cc2ccccc2)C(O)C(O)C(Cc2ccccc2)N1Cc1ccc2ccccc2c1` (centres unmarked) [Example 5H] returned an inhibition constant Ki of less than 10 nM.

The compound `C=CCOc1cccc(CN2C(=O)N(Cc3cccc(OCC=C)c3)C(Cc3ccccc3)C(O)C(O)C2Cc2ccccc2)c1` (centres unmarked) [Example 5L] showed a Ki of less than 10 nM.

Turning to `C=CCOc1cccc(CN2C(=O)N(Cc3cccc(O)c3)C(Cc3ccccc3)C(O)C(O)C2Cc2ccccc2)c1` (centres unmarked) [Example 5M], the Ki is less than 10 nM.

`CCOc1cccc(CN2C(=O)N(Cc3cccc(OCC)c3)C(Cc3ccccc3)C(O)C(O)C2Cc2ccccc2)c1` (centres unmarked) [Example 5N] had a Ki of 10 to 1000 nM.

In turn, `O=C1N(Cc2ccccc2Cl)C(Cc2ccccc2)C(O)C(O)C(Cc2ccccc2)N1Cc1ccccc1Cl` (centres unmarked) [Example 6ZD] came in with a Ki of 10 to 1000 nM.

For `O=C1N(Cc2ccc(Br)cc2)C(Cc2ccccc2)C(O)C(O)C(Cc2ccccc2)N1Cc1ccc(Br)cc1` (centres unmarked) [Example 6ZG], the inhibitory constant (Ki) was 10 to 1000 nM.

Compound `Nc1cccc(CN2C(=O)N(Cc3cccc(N)c3)C(Cc3ccccc3)C(O)C(O)C2Cc2ccccc2)c1` (centres unmarked) [Example 6ZI] showed a Ki of less than 10 nM.

As to `NCc1cccc(CN2C(=O)N(Cc3cccc(CN)c3)C(Cc3ccccc3)C(O)C(O)C2Cc2ccccc2)c1` (centres unmarked) [Example 6ZK], the inhibitory constant (Ki) is 10 to 1000 nM.

`O=C1NC(Cc2ccccc2)C(O)C(O)C(Cc2ccccc2)N1Cc1cccc([N+](=O)[O-])c1` (centres unmarked) [Example 6ZL] yielded a Ki of less than 10 nM.

`O=CNc1cccc(CN2C(=O)N(Cc3cccc(NC=O)c3)C(Cc3ccccc3)C(O)C(O)C2Cc2ccccc2)c1` (centres unmarked) [Example 6ZM] displayed a Ki of less than 10 nM.

In turn, `CC(=O)Nc1cccc(CN2C(=O)N(Cc3cccc(NC(C)=O)c3)C(Cc3ccccc3)C(O)C(O)C2Cc2ccccc2)c1` (centres unmarked) [Example 6ZN] displayed a Ki of less than 10 nM.

With `O=C1N(Cc2ccc(O)c(O)c2)C(Cc2ccccc2)C(O)C(O)C(Cc2ccccc2)N1Cc1ccc(O)c(O)c1` (centres unmarked) [Example 6ZQ], the Ki was less than 10 nM.

In the case of `O=C1NC(Cc2ccccc2)C(O)C(O)C(Cc2ccccc2)N1Cc1ccccc1` (centres unmarked) [Example 6o], the Ki is less than 10 nM.

Turning to `O=C1c2ccccc2C(O)C(O)c2ccccc21` (centres unmarked) [Example 26A, 5H-dibenzo [A,D] cyclohepten-5-one-10,11-dihydro-10, 11-diol], the Ki was more than 1000 nM.

Values taken from patent USRE37781E1, “Substituted cyclic carbonyls and derivatives thereof useful as retroviral protease inhibitors” (DuPont Pharmaceuticals Company, priority 1991, dated 2002).
